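Following 48 hours of exposure in 96-well plates, responses at five concentrations were used to interpolate endpoints linearly. At the GI50, growth is halved. Definition used: TGI = concentration required for complete inhibition of growth.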
Legend:
Test in all cases: NCI tumour cell line growth inhibition, 48 h
OVCAR-5 ovarian = test system: OVCAR-5 ovarian
COLO 205 colon = test system: COLO 205 colon
ACHN renal = test system: ACHN renal
MDA-MB-435 = test system: MDA-MB-435
T-47D breast = test system: T-47D breast
EKVX NSCLC = test system: EKVX NSCLC
SW-620 colon = test system: SW-620 colon
NCI-H522 lung = test system: NCI-H522 lung
SK-MEL-5 melanoma = test system: SK-MEL-5 melanoma
HOP-92 NSCLC = test system: HOP-92 NSCLC
SF-268 CNS = test system: SF-268 CNS
DU-145 prostate = test system: DU-145 prostate
NCI/ADR-RES ovarian = test system: NCI/ADR-RES ovarian
HCT-15 colon = test system: HCT-15 colon
SR leukemia = test system: SR leukemia
HT29 colon = test system: HT29 colon
CCRF-CEM leukemia = test system: CCRF-CEM leukemia
UO-31 renal = test system: UO-31 renal
MDA-MB-231 breast = test system: MDA-MB-231 breast
KM12 colon = test system: KM12 colon
LOX IMVI melanoma = test system: LOX IMVI melanoma
SK-MEL-28 melanoma = test system: SK-MEL-28 melanoma
SK-OV-3 ovarian = test system: SK-OV-3 ovarian
BT-549 breast = test system: BT-549 breast
NCI-H460 lung = test system: NCI-H460 lung
A549 NSCLC = test system: A549 NSCLC
K-562 leukemia = test system: K-562 leukemia
SN12C renal = test system: SN12C renal
MOLT-4 leukemia = test system: MOLT-4 leukemia
SK-MEL-2 melanoma = test system: SK-MEL-2 melanoma
PC-3 prostate = test system: PC-3 prostate
OVCAR-8 ovarian = test system: OVCAR-8 ovarian
UACC-257 melanoma = test system: UACC-257 melanoma
U251 CNS = test system: U251 CNS
HL-60(TB) leukemia = test system: HL-60(TB) leukemia
NCI-H226 lung = test system: NCI-H226 lung
HCT-116 colon = test system: HCT-116 colon
OVCAR-4 ovarian = test system: OVCAR-4 ovarian
SF-295 CNS = test system: SF-295 CNS
CAKI-1 renal = test system: CAKI-1 renal
786-0 renal = test system: 786-0 renal
OVCAR-3 ovarian = test system: OVCAR-3 ovarian
UACC-62 melanoma = test system: UACC-62 melanoma
HOP-62 NSCLC = test system: HOP-62 NSCLC
RXF 393 renal = test system: RXF 393 renal
TK-10 renal = test system: TK-10 renal
HCC-2998 colon = test system: HCC-2998 colon
SNB-19 CNS = test system: SNB-19 CNS
M14 melanoma = test system: M14 melanoma
NCI-H23 lung = test system: NCI-H23 lung
MALME-3M melanoma = test system: MALME-3M melanoma
A498 renal = test system: A498 renal

CCC(C)CN=C(N)c1ccc(N2CCN(c3ccc(C(N)=NCC(C)CC)cc3)CC2)cc1 (centres undefined)
GI50 (OVCAR-5 ovarian): 33 µM
TGI (OVCAR-5 ovarian): > 100 µM
GI50 (COLO 205 colon): 23.4 µM
TGI (COLO 205 colon): > 100 µM
GI50 (ACHN renal): 48 µM
TGI (ACHN renal): > 100 µM
GI50 (MDA-MB-435): 5.48 µM
TGI (MDA-MB-435): 28.5 µM
GI50 (T-47D breast): 18.5 µM
TGI (T-47D breast): > 100 µM
GI50 (EKVX NSCLC): 0.955 µM
TGI (EKVX NSCLC): 23.3 µM
GI50 (SW-620 colon): 17 µM
TGI (SW-620 colon): > 100 µM
GI50 (NCI-H522 lung): 6.49 µM
TGI (NCI-H522 lung): 27.2 µM
GI50 (SK-MEL-5 melanoma): 1.71 µM
TGI (SK-MEL-5 melanoma): 12.3 µM
GI50 (HOP-92 NSCLC): 0.29 µM
TGI (HOP-92 NSCLC): 8.03 µM
GI50 (SF-268 CNS): 3.93 µM
TGI (SF-268 CNS): 17.4 µM
GI50 (DU-145 prostate): 5.72 µM
TGI (DU-145 prostate): > 100 µM
GI50 (NCI/ADR-RES ovarian): 85.6 µM
TGI (NCI/ADR-RES ovarian): > 100 µM
GI50 (HCT-15 colon): 26.5 µM
TGI (HCT-15 colon): > 100 µM
GI50 (SR leukemia): 0.443 µM
TGI (SR leukemia): 3.01 µM
GI50 (HT29 colon): 11 µM
TGI (HT29 colon): > 100 µM
GI50 (CCRF-CEM leukemia): 6.09 µM
TGI (CCRF-CEM leukemia): 40.7 µM
GI50 (UO-31 renal): 79.5 µM
TGI (UO-31 renal): > 100 µM
GI50 (MDA-MB-231 breast): 6.19 µM
TGI (MDA-MB-231 breast): 37.3 µM
GI50 (KM12 colon): 7.25 µM
TGI (KM12 colon): 52 µM
GI50 (LOX IMVI melanoma): 12.1 µM
TGI (LOX IMVI melanoma): 41.8 µM
GI50 (SK-MEL-28 melanoma): 16.9 µM
TGI (SK-MEL-28 melanoma): 41.8 µM
GI50 (SK-OV-3 ovarian): 23.1 µM
TGI (SK-OV-3 ovarian): 79.8 µM
GI50 (BT-549 breast): 2.91 µM
TGI (BT-549 breast): 12.5 µM
GI50 (NCI-H460 lung): 3.34 µM
TGI (NCI-H460 lung): 19.1 µM
GI50 (A549 NSCLC): 10.5 µM
TGI (A549 NSCLC): > 100 µM
GI50 (K-562 leukemia): 2.84 µM
TGI (K-562 leukemia): 14 µM
GI50 (SN12C renal): 2.3 µM
TGI (SN12C renal): 8.89 µM
GI50 (MOLT-4 leukemia): 14.2 µM
TGI (MOLT-4 leukemia): 38.4 µM
GI50 (SK-MEL-2 melanoma): 8.67 µM
TGI (SK-MEL-2 melanoma): 45.3 µM
GI50 (PC-3 prostate): 7.56 µM
TGI (PC-3 prostate): 69.3 µM
GI50 (OVCAR-8 ovarian): 5.58 µM
TGI (OVCAR-8 ovarian): > 100 µM
GI50 (UACC-257 melanoma): 20.3 µM
TGI (UACC-257 melanoma): > 100 µM
GI50 (U251 CNS): 3.69 µM
TGI (U251 CNS): 19.4 µM
GI50 (HL-60(TB) leukemia): 10.9 µM
TGI (HL-60(TB) leukemia): 39.9 µM
GI50 (NCI-H226 lung): 6.54 µM
TGI (NCI-H226 lung): 31.3 µM
GI50 (HCT-116 colon): 8.51 µM
TGI (HCT-116 colon): 60 µM
GI50 (OVCAR-4 ovarian): 19.3 µM
TGI (OVCAR-4 ovarian): > 100 µM
GI50 (SF-295 CNS): 2.9 µM
TGI (SF-295 CNS): 17.4 µM
GI50 (CAKI-1 renal): 30 µM
TGI (CAKI-1 renal): 92.3 µM
GI50 (786-0 renal): 7.33 µM
TGI (786-0 renal): 87.3 µM
GI50 (OVCAR-3 ovarian): 3.45 µM
TGI (OVCAR-3 ovarian): 35.4 µM
GI50 (UACC-62 melanoma): 11.4 µM
TGI (UACC-62 melanoma): 28.1 µM
GI50 (HOP-62 NSCLC): 4.51 µM
TGI (HOP-62 NSCLC): 24.2 µM
GI50 (RXF 393 renal): 15.9 µM
TGI (RXF 393 renal): 96.7 µM
GI50 (TK-10 renal): 15.1 µM
TGI (TK-10 renal): > 100 µM
GI50 (HCC-2998 colon): 11.5 µM
TGI (HCC-2998 colon): > 100 µM
GI50 (SNB-19 CNS): 12.9 µM
TGI (SNB-19 CNS): 69.2 µM
GI50 (M14 melanoma): 8.64 µM
TGI (M14 melanoma): 43.5 µM
GI50 (NCI-H23 lung): 5.2 µM
TGI (NCI-H23 lung): 36.3 µM

N=C(N)c1ccc(-c2ccc(-c3ccccc3)s2)s1
GI50 (OVCAR-5 ovarian): 0.374 µM
TGI (OVCAR-5 ovarian): 2.45 µM
GI50 (HOP-92 NSCLC): 0.0655 µM
TGI (HOP-92 NSCLC): 2.17 µM
GI50 (DU-145 prostate): < 0.01 µM
TGI (DU-145 prostate): 1.1 µM
GI50 (MDA-MB-231 breast): 0.753 µM
TGI (MDA-MB-231 breast): 2.5 µM
GI50 (BT-549 breast): 0.0267 µM
TGI (BT-549 breast): 2 µM
GI50 (SN12C renal): 0.156 µM
TGI (SN12C renal): 1.95 µM
GI50 (SK-MEL-2 melanoma): 1.76 µM
TGI (SK-MEL-2 melanoma): 3.38 µM
GI50 (PC-3 prostate): 0.249 µM
TGI (PC-3 prostate): 2.03 µM
GI50 (UACC-257 melanoma): 0.156 µM
TGI (UACC-257 melanoma): 2.31 µM
GI50 (HL-60(TB) leukemia): 0.0287 µM
TGI (HL-60(TB) leukemia): 1.43 µM
GI50 (SF-295 CNS): 0.0321 µM
TGI (SF-295 CNS): 0.273 µM
GI50 (UACC-62 melanoma): 0.0156 µM
TGI (UACC-62 melanoma): 1.3 µM
GI50 (HCC-2998 colon): 1.05 µM
TGI (HCC-2998 colon): 2.36 µM
GI50 (MALME-3M melanoma): 1.17 µM
TGI (MALME-3M melanoma): 2.59 µM
GI50 (M14 melanoma): < 0.01 µM
TGI (M14 melanoma): 0.0155 µM
GI50 (NCI-H23 lung): < 0.01 µM
TGI (NCI-H23 lung): 1.37 µM
GI50 (A498 renal): < 0.01 µM
TGI (A498 renal): 1.34 µM

Reference: PubChem BioAssay (NCI)
